Experimental data taken from patent US10864197B2, “Biphenyl sulfonamide compounds for the treatment of kidney diseases or disorders” (Retrophin, Inc., priority 2016, dated 2020).

What was measured:
Type in all cases: in vivo, human
[1] = DUET trial: eGFR and serum markers; conditions: double-blind period
Description: (§1) DUET trial is a phase 2, double-blind, randomized, active-control, dose-escalation study (NCT01613118) that evaluates the efficacy and safety of sparsentan as a treatment for primary focal segmental glomerulosclerosis (FSGS), a rare disorder characterized by massive proteinuria and progressive loss of kidney function. Patients (ranging in age from 8 years to 75 years) with biopsy-proven primary FSGS (or documentation of a genetic mutation in a podocyte protein associated with the disease) having baseline urine protein to creatinine (“UP/C”) ratios greater than 1 g/g and estimated glomerular filtration rates greater than 30 ml/min were eligible for the study. The inclusion criteria also included a mean seated blood pressure >[…] and <145/96 mmHg for patients aged 18 years or older, or, for patients aged <18 years of age, a mean seated blood pressure of >90/60 mmHg and <95th percentile for age, gender, and height. The inclusion criteria included an allowance for a stable dose of immunosuppressive medication for ≥1 month. Exclusion criteria included secondary FSGS; significant medical conditions related to cardiac, hepatic, or immune function; body mass index >[…] for adults or in the 99th percentile plus 5 for pediatric patients; hematocrit <27% or hemoglobin <[…]; serum potassium >5.5 mEq/L; and women who were pregnant, breastfeeding, or of child-bearing potential who were unwilling to use two methods of contraception.
(§2) Patients who signed consent and met all inclusion and exclusion criteria during the screening phase underwent a 2-week angiotensin receptor blocker (ARB) and angiotensin converting enzyme (ACE) inhibitor washout period before being randomly assigned to one of the three escalating dose cohorts receiving sparsentan (200 mg/day; 400 mg/day; and 800 mg/day) or a fixed maximal dose of active control (the ARB irbesartan, at 300 mg/day) in a 3:1 ratio within each cohort. The primary endpoint was the change in UP/C ratio (determined as a measure of urinary protein excretion) from baseline. The proportion of patients achieving UP/C ratio ≤1.5 g/g with >40% reduction in UP/C ratio at Week 8, a modified responder analysis, was evaluated as secondary endpoint.

[2] = DUET trial: systolic and diastolic blood pressure; conditions: double-blind period; irbesartan n=32, sparsentan n=64
Description: DUET trial is a phase 2, double-blind, randomized, active-control, dose-escalation study (NCT01613118) that evaluates the efficacy and safety of sparsentan as a treatment for primary focal segmental glomerulosclerosis (FSGS), a rare disorder characterized by massive proteinuria and progressive loss of kidney function. Patients (ranging in age from 8 years to 75 years) with biopsy-proven primary FSGS (or documentation of a genetic mutation in a podocyte protein associated with the disease) having baseline urine protein to creatinine (“UP/C”) ratios greater than 1 g/g and estimated glomerular filtration rates greater than 30 ml/min were eligible for the study. […]
Patients who signed consent and met all inclusion and exclusion criteria during the screening phase underwent a 2-week angiotensin receptor blocker (ARB) and angiotensin converting enzyme (ACE) inhibitor washout period before being randomly assigned to one of the three escalating dose cohorts receiving sparsentan (200 mg/day; 400 mg/day; and 800 mg/day) or a fixed maximal dose of active control (the ARB irbesartan, at 300 mg/day) in a 3:1 ratio within each cohort. The primary endpoint was the change in UP/C ratio (determined as a measure of urinary protein excretion) from baseline. […]

[3] = DUET trial: treatment emergent adverse events and edema severity; conditions: for Patients with Edema, Severity Grade 0 / Patients with Edema, Severity Grade 1+ to 2+ / Patients with Edema, Severity Grade 3+ to 4+ / Percent of patients having treatment emergent adverse effects: Any / Percent of patients having treatment emergent adverse effects: Drug-related / Percent of patients having treatment emergent adverse effects: Leading to dose change or interruption / Percent of patients having treatment emergent adverse effects: Leading to drug discontinuation / Percent of patients having treatment emergent adverse effects: Leading to study withdrawal / Percent of patients having treatment emergent adverse effects: Serious / Percent of patients with Cough / Percent of patients with Diarrhea / Percent of patients with Dizziness / Percent of patients with Edema/edema peripheral / Percent of patients with Fatigue / Percent of patients with Headache / Percent of patients with Hypotension/orthostatic hypotension / Percent of patients with Muscle spasms / Percent of patients with Nasal congestion / Percent of patients with Nausea / Percent of patients with Upper abdominal pain / Percent of patients with Upper respiratory tract infection / Percent of patients with Vomiting: human, in vivo; for Percent of patients having treatment emergent adverse effects: Death: irbesartan n=36, sparsentan all doses n=73
Description: as §1, §2
The incidences of specific treatment emergent adverse events for which the incidence was greater than 5% across all patients are shown in Table 7. Symptoms such as headache, dizziness, and edema may be associated with hypotension and some of those symptoms were more frequent in patients treated with sparsentan relative to those patients treated with irbesartan. However, there was no significant different between irbesartan-treated patients and sparsentan-treated patients in the worsening of existing edema (Table 8).

| SMILES | change in N-terminal pro-B-type natriuretic peptide [1] | change in albumin [1] | change in eGFR [1] | change in serum potassium [1] | mean systolic and diastolic blood pressures relative to baseline [2] | Patients with Edema, Severity Grade 0 [3] [%] | Patients with Edema, Severity Grade 1+ to 2+ [3] [%] | Patients with Edema, Severity Grade 3+ to 4+ [3] [%] | Patients with Edema, Severity Grade 0 ([3]; 8 weeks) [%] | Patients with Edema, Severity Grade 1+ to 2+ ([3]; 8 weeks) [%] | Patients with Edema, Severity Grade 3+ to 4+ ([3]; 8 weeks) [%] | Percent of patients having treatment emergent adverse effects: Any ([3]; 8 weeks) [%] | Percent of patients having treatment emergent adverse effects: Drug-related ([3]; 8 weeks) [%] | Percent of patients having treatment emergent adverse effects: Leading to dose change or interruption ([3]; 8 weeks) [%] | Percent of patients having treatment emergent adverse effects: Leading to drug discontinuation ([3]; 8 weeks) [%] | Percent of patients having treatment emergent adverse effects: Leading to study withdrawal ([3]; 8 weeks) [%] | Percent of patients having treatment emergent adverse effects: Serious ([3]; 8 weeks) [%] | Percent of patients with Cough ([3]; 8 weeks) [%] | Percent of patients with Diarrhea ([3]; 8 weeks) [%] | Percent of patients with Dizziness ([3]; 8 weeks) [%] | other results |
| --- | --- | --- | --- | --- | --- | --- | --- | --- | --- | --- | --- | --- | --- | --- | --- | --- | --- | --- | --- | --- | --- |
| CCCCC1=NC2(CCCC2)C(=O)N1Cc1ccc(-c2ccccc2-c2nnn[nH]2)cc1 [Irbesartan, irbesartan, reference compound] | no significant change or difference | no significant change or difference | no significant change or difference | no significant change or difference | reductions | 76 | 21 | 3 | 86 | 14 | 0 | 72.2 | 36.1 | 8.3 | 2.8 | 2.8 | 2.8 | 5.6 | 2.8 | 11.1 | Percent of patients with Edema/edema peripheral ([3]; 8 weeks): 2.8%; Percent of patients with Fatigue ([3]; 8 weeks): 11.1%; Percent of patients with Headache ([3]; 8 weeks): 19.4%; Percent of patients with Hypotension/orthostatic hypotension ([3]; 8 weeks): 8.3%; Percent of patients with Muscle spasms ([3]; 8 weeks): 5.6%; Percent of patients with Nasal congestion ([3]; 8 weeks): 11.1%; Percent of patients with Nausea ([3]; 8 weeks): 8.3%; Percent of patients with Upper abdominal pain ([3]; 8 weeks): 5.6%; Percent of patients with Upper respiratory tract infection ([3]; 8 weeks): 5.6%; Percent of patients with Vomiting ([3]; 8 weeks): 2.8%; Percent of patients having treatment emergent adverse effects: Death [3]: 0% |
| CCCCC1=NC2(CCCC2)C(=O)N1Cc1ccc(-c2ccccc2S(=O)(=O)Nc2noc(C)c2C)c(COCC)c1 [Sparsentan, 4′-((2-butyl-4-oxo-1,3-diazaspiro[4.4]non-1-en-3-yl)methyl)-N-(4,5-dimethylisoxazol-3-yl)-2′-(ethoxymethyl)-[1,1′-biphenyl]-2-sulfonamide] | no significant change or difference | no significant change or difference | no significant change or difference | no significant change or difference | reduction was statistically significant | 66 | 32 | 2 | 65 | 30 | 5 | 76.7 | 43.8 | 23.3 | 4.1 | 2.7 | 2.7 | 4.1 | 8.2 | 13.7 | Percent of patients with Edema/edema peripheral ([3]; 8 weeks): 12.3%; Percent of patients with Fatigue ([3]; 8 weeks): 4.1%; Percent of patients with Headache ([3]; 8 weeks): 19.2%; Percent of patients with Hypotension/orthostatic hypotension ([3]; 8 weeks): 16.4%; Percent of patients with Muscle spasms ([3]; 8 weeks): 0%; Percent of patients with Nasal congestion ([3]; 8 weeks): 2.7%; Percent of patients with Nausea ([3]; 8 weeks): 12.3%; Percent of patients with Upper abdominal pain ([3]; 8 weeks): 5.5%; Percent of patients with Upper respiratory tract infection ([3]; 8 weeks): 2.7%; Percent of patients with Vomiting ([3]; 8 weeks): 8.2%; Percent of patients having treatment emergent adverse effects: Death [3]: 0% |
